According to US8362000B2, “Azetidinyl diamides as monoacylglycerol lipase inhibitors” (Janssen Pharmaceutica NV, priority 2009, dated 2013):
Residue numbers refer to the chain shown, from its start. Like-named read-outs stand apart in the source and are kept apart here.

How the values were obtained:
[1] = target: T1, mutant MGL (Homo sapiens, UniProt Q99685, L169S/L176S); assay: MGL ThermoFluor assay - mutant; format: binding
T1 sequence (Q99685 1-303 L169S/L176S): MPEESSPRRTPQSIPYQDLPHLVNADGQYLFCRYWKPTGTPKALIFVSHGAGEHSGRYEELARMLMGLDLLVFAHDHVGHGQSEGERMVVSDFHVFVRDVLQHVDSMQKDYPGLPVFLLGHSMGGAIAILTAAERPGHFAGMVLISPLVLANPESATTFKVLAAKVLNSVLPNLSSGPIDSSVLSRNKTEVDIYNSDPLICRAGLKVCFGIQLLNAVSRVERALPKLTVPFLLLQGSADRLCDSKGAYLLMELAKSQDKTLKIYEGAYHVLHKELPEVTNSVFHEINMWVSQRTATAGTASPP

[2] = target: T2, purified wild type MGL (wt-MGLL 6H-11-313) (Homo sapiens, UniProt Q99685)
T2 sequence (Q99685 1-303): T1 sequence (Q99685 1-303 L169S/L176S) with S169L, S176L

[3] = ThermoFluor, compound concentration measured by qNMR, read-out: MGL mutant ThermoFluor qKd (μM) (using qNMR conc.)
[4] = ThermoFluor, compound concentration measured by qNMR, read-out: MGL mutant ThermoFluor qKd (using qNMR conc.)
[5] = ThermoFluor concentration-response, read-out: MGL mutant ThermoFluor Kd
[6] = compound concentration measured by qNMR, read-out: MGL mutant ThermoFluor qKd (using qNMR conc.)
[7] = ThermoFluor thermal stability binding assay, read-out: MGL mutant ThermoFluor Kd

Cc1cc2nc(C(=O)N3CC(N4CCN(C(=O)c5ccc[nH]5)CC4)C3)cn2cc1Br [Cpd 1451]
Kd [1, 3]: > 16.2 µM | IC50 [2]: > 16700 nM

O=C(c1ccc(-c2cccc(C(F)(F)F)c2)cc1)N1CC(N2CCN(C(=O)c3cocn3)CC2)C1 [Cpd 1094]
Kd [1, 3]: 0.012 µM | IC50 [2]: 11 nM

O=C(c1ccc2c(ccn2-c2ccc(Cl)c(F)c2)c1)N1CC(N2CCN(C(=O)c3nccs3)CC2)C1 [Cpd 1372]
Kd [1, 3]: 0.002 µM | IC50 [2]: < 5 nM

Cc1cn(-c2ccc(C(=O)N3CC(N4CCN(C(=O)c5nccs5)CC4)C3)cc2)c2ccccc12 [Cpd 1413]
Kd [1, 3]: 0.003 µM | IC50 [2]: 15 nM

O=C(c1nc2cc(-c3cccnc3F)ccc2[nH]1)N1CC(N2CCN(C(=O)c3nccs3)CC2)C1 [Cpd 1476]
Kd [1, 3]: 7.21 µM | IC50 [2]: > 16700 nM

O=C(c1cnc2ccc(Cl)cc2c1)N1CC(N2CCN(C(=O)c3nccs3)CC2)C1 [Cpd 797]
Kd [1, 4]: 0.489 µM | IC50 [2]: 1600 nM

COc1cccc2c(C)c(C(=O)N3CC(N4CCN(C(=O)c5ccccc5)CC4)C3)[nH]c12 [Cpd 526]
Kd [1, 5]: 4.98 µM | IC50 [2]: 8100 nM

O=C(c1ccc2c(c1)ncn2CC(F)(F)F)N1CC(N2CCN(C(=O)c3cscn3)CC2)C1 [Cpd 841]
Kd [1, 6]: 0.917 µM | IC50 [2]: 5260 nM

Cc1nc2cc(C(=O)N3CCN(C4CN(C(=O)c5ccccc5)C4)CC3)ccc2n1C1CCCCC1 [Cpd 523]
Kd [1, 5]: 0.686 µM | IC50 [2]: 3130 nM

O=C(c1cc2ccc(C(F)(F)F)cc2[nH]1)N1CC(N2CCN(C(=O)c3nccs3)CC2)C1 [Cpd 756]
Kd [1, 5]: 0.383 µM | IC50 [2]: 519 nM

O=C(c1ccc2cnn(Cc3ccc(F)cc3)c2c1)N1CC(N2CCN(C(=O)c3nccs3)CC2)C1 [Cpd 1051, 1-(4-Fluorobenzyl)-6-({3-[4-(1,3-thiazol-2-ylcarbonyl)piperazin-1-yl]azetidin-1-yl}carbonyl)-1H-indazole]
Kd [1, 6]: 0.175 µM | IC50 [2]: 128 nM

Cc1cn(-c2cccc(F)c2)c2ccc(C(=O)N3CC(N4CCN(C(=O)c5ccccc5)CC4)C3)cc12 [Cpd 583]
Kd [1, 3]: 0.051 µM | IC50 [2]: 104 nM

O=C(c1ccc(-c2cccc(C(F)(F)F)c2)cc1)N1CC(N2CCN(C(=O)c3ccc(Cl)s3)CC2)C1 [Cpd 1143]
Kd [1, 3]: 0.07 µM | IC50 [2]: 30 nM

O=C(c1ccc2nn(-c3cccc(OC(F)(F)F)c3)cc2c1)N1CC(N2CCN(C(=O)c3cscn3)CC2)C1 [Cpd 1422]
Kd [1, 3]: 0.195 µM | IC50 [2]: 14 nM

O=C(c1ccc2c(c1)[S+]([O-])c1ccccc1O2)N1CC(N2CCN(C(=O)c3nccs3)CC2)C1 (centres unmarked) [Cpd 807]
Kd [1, 6]: 3.65 µM | IC50 [2]: 2080 nM

O=C(c1ccc(Oc2ncc(C(F)(F)F)cc2Cl)cc1)N1CC(N2CCN(C(=O)c3cscn3)CC2)C1 [Cpd 720]
Kd [1, 5]: 0.347 µM | IC50 [2]: 173 nM

O=C(c1ccc2[nH]c(C3CCCCC3)nc2c1)N1CCN(C2CN(C(=O)c3nccs3)C2)CC1 [Cpd 827]
Kd [1, 5]: 0.5 µM | IC50 [2]: 3310 nM

O=C(c1ccc(Oc2ccccc2Cl)nc1)N1CC(N2CCN(C(=O)c3cscn3)CC2)C1 [Cpd 811]
Kd [1, 5]: 3.33 µM | IC50 [2]: 2150 nM

CC1CN(C(=O)c2nccs2)CCN1C1CN(C(=O)c2ccc(Cc3ccccc3)cc2)C1 (centres unmarked) [Cpd 47, 1-{1-[(4-Benzylphenyl)carbonyl]azetidin-3-yl}-2-methyl-4-(1,3-thiazol-2-ylcarbonyl)piperazine]
Kd [1, 5]: 0.0909 µM | IC50 [2]: 129 nM

COc1cncc(-c2ccc3[nH]c(C(=O)N4CC(N5CCN(C(=O)c6nccs6)CC5)C4)c(C)c3c2)c1 [Cpd 1175]
Kd [1, 3]: 0.01 µM | IC50 [2]: 66 nM

Cc1nc2cc(C(=O)N3CC(N4CCN(C(=O)c5nccs5)CC4)C3)ccc2n1-c1ccc(C(F)(F)F)cc1 [Cpd 1215]
Kd [1, 6]: 0.006 µM | IC50 [2]: 216 nM

O=C(c1cscn1)N1CCN(C2CN(C(=O)c3nn(-c4ccc(Cl)cc4Cl)c4c3CCCC4)C2)CC1 [Cpd 1304]
Kd [1, 6]: 7.9 µM | IC50 [2]: 6030 nM

O=C(c1ccc2cn(Cc3ccc(F)cc3)nc2c1)N1CC(N2CCN(C(=O)c3nccs3)CC2)C1 [Cpd 1052, 2-(4-Fluorobenzyl)-6-({3-[4-(1,3-thiazol-2-ylcarbonyl)piperazin-1-yl]azetidin-1-yl}carbonyl)-2H-indazole]
Kd [1, 6]: 0.065 µM | IC50 [2]: 28 nM

O=C(c1ccc2c(c1)[nH]c(=O)n2-c1ccc(F)cc1)N1CC(N2CCN(C(=O)c3nccs3)CC2)C1 [Cpd 934, 1-(4-Fluorophenyl)-5-({3-[4-(1,3-thiazol-2-ylcarbonyl)piperazin-1-yl]azetidin-1-yl}carbonyl)-1,3-dihydro-2H-benzimidazol-2-one]
Kd [1, 5]: 0.025 µM | IC50 [2]: 174 nM

O=C(c1ccc(Oc2cc(C(F)(F)F)ccn2)cc1)N1CC(N2CCN(C(=O)C(F)(F)F)CC2)C1 [Cpd 837]
Kd [1, 6]: 20 µM | IC50 [2]: 5040 nM

O=C(c1ccc(SCc2cccc(C(F)(F)F)c2)cc1)N1CC(N2CCN(C(=O)C(F)(F)F)CC2)C1 [Cpd 974]
Kd [1, 6]: 1.78 µM | IC50 [2]: 177 nM

O=C(c1cscn1)N1CCN(C2CN(C(=O)c3cc4cc(Br)cnc4o3)C2)CC1 [Cpd 1448]
Kd [1, 7]: 7.09 µM | IC50 [2]: > 16700 nM

O=C(c1ccc2c(=O)c3ccccc3oc2c1)N1CC(N2CCN(C(=O)c3nccs3)CC2)C1 [Cpd 710]
Kd [1, 4]: 0.197 µM | IC50 [2]: 123 nM

Cc1nc2cc(C(=O)N3CC(N4CCN(C(=O)c5nccs5)CC4)C3)ccc2n1CCC(F)(F)F [Cpd 777]
Kd [1, 6]: 0.048 µM | IC50 [2]: 913 nM

Cc1c(C(=O)N2CC(N3CCN(C(=O)c4nccs4)CC3)C2)oc2ccc(F)cc12 [Cpd 751]
Kd [1, 5]: 1.32 µM | IC50 [2]: 402 nM

O=C(c1ccc(S(=O)(=O)N2CCCCC2)cc1)N1CC(N2CCN(C(=O)c3nccs3)CC2)C1 [Cpd 947]
Kd [1, 4]: 0.653 µM | IC50 [2]: 1060 nM

NC(=O)c1ccc(Cn2ncc3cc(C(=O)N4CC(N5CCN(C(=O)c6nccs6)CC5)C4)ccc32)cc1 [Cpd 1044, 4-{[5-({3-[4-(1,3-Thiazol-2-ylcarbonyl)piperazin-1-yl]azetidin-1-yl]carbonyl)-1H-indazol-1-yl}methyl}benzamide]
Kd [1, 6]: 0.945 µM | IC50 [2]: 718 nM

N#Cc1ccc(N2CCC(C(=O)N3CC(N4CCN(C(=O)c5cscn5)CC4)C3)CC2)cc1 [Cpd 647]
Kd [1, 7]: > 31.2 µM | IC50 [2]: 12700 nM

COc1ccc2c(C)c(C(=O)N3CC(N4CCN(C(=O)c5cscn5)CC4)C3)oc2c1 [Cpd 850]
Kd [1, 5]: 1 µM | IC50 [2]: 7280 nM

O=C(c1ccc2c(-c3cccc(F)c3)c[nH]c2c1)N1CC(N2CCN(C(=O)c3nccs3)CC2)C1 [Cpd 1319]
Kd [1, 6]: 0.001 µM | IC50 [2]: < 5 nM

O=C(c1ccc(S(=O)(=O)c2cccc(C(F)(F)F)c2)cc1)N1CC(N2CCN(C(=O)c3cscn3)CC2)C1 [Cpd 738]
Kd [1, 5]: 0.291 µM | IC50 [2]: 289 nM

O=C(c1cc2nc(C(F)(F)F)ccc2[nH]1)N1CC(N2CCN(C(=O)c3nccs3)CC2)C1 [Cpd 863]
Kd [1, 4]: 4.37 µM | IC50 [2]: 10200 nM

O=C(c1ccc(Oc2ccccn2)c(Cl)c1)N1CC(N2CCN(C(=O)c3nccs3)CC2)C1 [Cpd 752]
Kd [1, 5]: 0.095 µM | IC50 [2]: 421 nM

Cc1cc2c(ccn2-c2ccc(F)cc2)cc1C(=O)N1CC(N2CCN(C(=O)c3nccs3)CC2)C1 [Cpd 1415]
Kd [1, 6]: 0.011 µM | IC50 [2]: 115 nM

C[C@@H]1CN(C(=O)c2nccs2)C[C@H](C)N1C1CN(C(=O)c2cc3ccc(C(F)(F)F)cc3s2)C1 [Cpd 953]
Kd [1, 4]: > 26.9 µM | IC50 [2]: > 16700 nM

CCCCC/C=C\C/C=C\C/C=C\C/C=C\CCCC(=O)N1CC(N2CCN(C(=O)c3nccs3)CC2)C1 [Cpd 639]
Kd [1, 5]: 0.132 µM | IC50 [2]: 419 nM

O=C(c1ccc2c(ccn2Cc2cccnc2)c1)N1CC(N2CCN(C(=O)c3nccs3)CC2)C1 [Cpd 1048]
Kd [1, 6]: 0.146 µM | IC50 [2]: 695 nM

O=C(c1ccccc1)N1CCN(C2CN(C(=O)c3ccc(Oc4cccc(C(F)(F)F)c4)nc3)C2)CC1 [Cpd 514]
Kd [1, 5]: 0.727 µM | IC50 [2]: 454 nM
